± gives the standard deviation of the averaged measurements.
Tested on: SW872
Assay: relative viability vs DMSO control (72 h) (fraction); higher = more viable cells
In short: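 Sarcoma cell lines went into 384-well plates at densities chosen to reach 80–90% confluence. After 24 h, each well received 2.5 µl of serially diluted compound, with source plates running from 10 mM to 0.0002 mM, and the plates were kept 72 h at 37 °C, 5% CO2, alongside 0.1% DMSO vehicle and a 5 µM positive control. Relative viability was derived from ATPLite readings as percent growth and averaged over up to triplicate wells. The data were then rescaled so that 1 stands for full and 0 for none.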

Question: What does the source list for `COc1cc2nccc(Oc3ccc(NC(=O)Nc4cc(C)on4)c(Cl)c3)c2cc1OC` [Tivozanib]?
Answer: relative viability (0.00017 µM): 1.07 ± 0.073; relative viability (0.00051 µM): 1.07 ± 0.026; relative viability (0.00152 µM): 1.04 ± 0.031; relative viability (0.00457 µM): 1.06 ± 0.038; relative viability (0.01372 µM): 1.08 ± 0.031; relative viability (0.04115 µM): 1.09 ± 0.039; relative viability (0.1235 µM): 1.08 ± 0.044; relative viability (0.3704 µM): 1.1 ± 0.051; relative viability (1.111 µM): 1.07 ± 0.028; relative viability (3.333 µM): 1.03 ± 0.036; relative viability (10 µM): 0.691 ± 0.031

Question: Which results are given for `C[C@]1(O)C[C@@H](c2nc(-c3ccc4ccc(-c5ccccc5)nc4c3)c3c(N)nccn32)C1` [Linsitinib]?
Answer: relative viability (0.00017 µM): 1.04 ± 0.037; relative viability (0.00051 µM): 1.05 ± 0.014; relative viability (0.00152 µM): 1.03 ± 0.041; relative viability (0.00457 µM): 1 ± 0.043; relative viability (0.01372 µM): 0.995 ± 0.048; relative viability (0.04115 µM): 0.973 ± 0.027; relative viability (0.1235 µM): 0.9745 ± 0.0092; relative viability (0.3704 µM): 0.9267 ± 0.0035; relative viability (1.111 µM): 0.914 ± 0.027; relative viability (3.333 µM): 0.821 ± 0.028; relative viability (10 µM): 0.615 ± 0.018

Question: Which relative viability (0.00017 µM) does the source give for `C=CC(=O)Nc1cccc(Oc2nc(Nc3ccc(N4CCN(C)CC4)cc3)nc3ccsc23)c1` [Olmutinib] here?
Answer: Its relative viability is 1.01 ± 0.04.

Question: And the relative viability (0.00051 µM)?
Answer: The relative viability was 1.03 ± 0.011.

Question: What about the relative viability (0.00152 µM) of the same compound?
Answer: Its relative viability is 1.02 ± 0.029.

Question: And the relative viability (0.00457 µM)?
Answer: Its relative viability is 1.03 ± 0.034.

Question: What about the relative viability (0.01372 µM) of the same compound?
Answer: Its relative viability is 1.034 ± 0.0086.

Question: And the relative viability (0.04115 µM)?
Answer: Its relative viability is 1.01 ± 0.044.

Question: What about the relative viability (0.1235 µM) of the same compound?
Answer: Its relative viability is 1.01 ± 0.011.

Question: What about the relative viability (0.3704 µM) of the same compound?
Answer: Its relative viability is 1.02 ± 0.018.

Question: And the relative viability (1.111 µM)?
Answer: The relative viability was 1.011 ± 0.0092.

Question: And the relative viability (3.333 µM)?
Answer: The relative viability was 0.873 ± 0.05.

Question: What about the relative viability (10 µM) of the same compound?
Answer: Its relative viability is 0.625 ± 0.015.

Question: With `O=C(Nc1cnn2ccc(N3CCC[C@@H]3c3cc(F)ccc3F)nc12)N1CC[C@H](O)C1` [Larotrectinib] as the compound, how does the relative viability (0.00017 µM) read?
Answer: Its relative viability is 1.09 ± 0.022.

Question: And the relative viability (0.00051 µM)?
Answer: The relative viability was 1.12 ± 0.052.

Question: And the relative viability (0.00152 µM)?
Answer: The relative viability was 1.09 ± 0.072.

Question: What about the relative viability (0.00457 µM) of the same compound?
Answer: Its relative viability is 1.08 ± 0.049.

Question: And the relative viability (0.01372 µM)?
Answer: Its relative viability is 1.05 ± 0.11.

Question: What about the relative viability (0.04115 µM) of the same compound?
Answer: The relative viability was 0.99 ± 0.076.

Question: What about the relative viability (0.1235 µM) of the same compound?
Answer: Its relative viability is 1.06 ± 0.095.

Question: And the relative viability (0.3704 µM)?
Answer: The relative viability was 1.06 ± 0.078.

Question: What about the relative viability (1.111 µM) of the same compound?
Answer: The relative viability was 1.03 ± 0.065.

Question: What about the relative viability (3.333 µM) of the same compound?
Answer: Its relative viability is 1.03 ± 0.056.

Question: And the relative viability (10 µM)?
Answer: Its relative viability is 0.986 ± 0.044.

— the supplement of paper PMC10883282
